Data on eleven compounds can be found in article PMC9151520 (Archives of Toxicology, 2022).

Where a name gives a salt, the structure may show the parent alone. Read-outs that look alike come from different tables or passages of the source.

The subject of test [1] is p53 signaling (p53RE-bla HCT-116 cells). The experiment in a line: cells. Type of test: cell-based. The conditions noted are these: for EC50 / Emax: Homo sapiens.
Test [2] has the same test system.
The test system is the same in test [3]. The source holds these as a separate data set.
Where [4] appears, read: HCT-116, read-out: p53 activation EC50, cherry pick confirmation.
[5] abbreviates: HCT-116, read-out: p53 activation EC50, primary screening.
The mark [6] stands for this setting: HCT-116, read-out: p53 activation efficacy, cherry pick confirmation.
The mark [7] stands for this setting: HCT-116, read-out: p53 activation efficacy, primary screening.
[8] abbreviates: HCT-116, read-out: EC50, p53 activation, primary screening.
Where [9] appears, read: HCT-116, read-out: Efficacy, p53 activation, primary screening.

On to `CC(C)(C)C(=O)OCOP(=O)(COCCn1cnc2c(N)ncnc21)OCOC(=O)C(C)(C)C` [Adefovir dipivoxil], for which, in the test with p53RE-bla HCT-116 cells, the “Viability EC50, cherry pick confirmation” value is “inactive”; the “Viability EC50, primary screening” value was “inactive”; the “Viability efficacy, cherry pick confirmation” value was “inactive”; the “Viability efficacy, primary screening” value was “inactive”. Further, the EC50 in test [1] (setting [4]) turned out to be 1.47 µM. Also, the EC50 in test [1] (setting [5]) amounted to 5.18 µM. For the same compound, the Emax in test [1] (setting [6]) turned out to be 60.8%. The Emax in test [1] (setting [7]) was 106%. Moreover, in test [2], the “p53 activation EC50, cherry pick confirmation” value is “inactive”; the “p53 activation EC50, primary screening” value is “inactive”; the “p53 activation efficacy, cherry pick confirmation” value was “inactive”; the “p53 activation efficacy, primary screening” value was “inactive”. Further, in test [3], the “p53 activation EC50, cherry pick confirmation” value is “inactive”; the “p53 activation EC50, primary screening” value is “inactive”; the “p53 activation efficacy, cherry pick confirmation” value is “inactive”; the “p53 activation efficacy, primary screening” value is “inactive”.

`COc1cccc2c1C(=O)c1c(O)c3c(c(O)c1C2=O)C[C@@](O)(C(=O)CO)C[C@@H]3O[C@H]1C[C@H](N)[C@H](O)[C@H](C)O1` [Adriamycin hydrochloride]: in the test on p53RE-bla HCT-116 cells, the “EC50, viability, cherry pick confirmation” value was “inactive”; the “EC50, viability, primary screening” value was “inactive”; the “Efficacy, viability, cherry pick confirmation” value was “inactive”; the “Efficacy, viability, primary screening” value was “inactive”. Further, in test [1] (HCT-116, read-out: EC50, p53 activation, cherry pick confirmation), the EC50 was found to be 1.45 µM. Besides, the EC50 in test [1] (setting [8]) is 0.963 µM. The Emax in test [1] (HCT-116, read-out: Efficacy, p53 activation, cherry pick confirmation) is 335%. In addition, the Emax in test [1] (setting [9]) amounted to 220%. Moreover, in test [2], the “EC50, p53 activation, cherry pick confirmation” value is “inactive”; the “EC50, p53 activation, primary screening” value is “inactive”; the “Efficacy, p53 activation, cherry pick confirmation” value is “inactive”; the “Efficacy, p53 activation, primary screening” value was “inactive”. Further, in test [3], the “EC50, p53 activation, cherry pick confirmation” value is “inactive”; the “EC50, p53 activation, primary screening” value is “inactive”; the “Efficacy, p53 activation, cherry pick confirmation” value was “inactive”; the “Efficacy, p53 activation, primary screening” value was “inactive”.

As for `CCC[S+]([O-])c1ccc2[nH]c(NC(=O)OC)nc2c1` (centres unmarked) [Albendazole oxide], in the test on p53RE-bla HCT-116 cells, the “Viability EC50, cherry pick confirmation” value was “inactive”; the “Viability EC50, primary screening” value was “inactive”; the “Viability efficacy, cherry pick confirmation” value is “inactive”; the “Viability efficacy, primary screening” value was “inactive”. Moreover, the EC50 in test [1] (setting [4]) worked out at 20.5 µM. Moreover, in test [1] (setting [5]), the EC50 was found to be 12.8 µM. Further, the Emax in test [1] (setting [6]) came out at 37.2%. In test [1] (setting [7]), the Emax is 33.8%. Besides, in test [2], the “p53 activation EC50, cherry pick confirmation” value is “inactive”; the “p53 activation EC50, primary screening” value was “inactive”; the “p53 activation efficacy, cherry pick confirmation” value was “inactive”; the “p53 activation efficacy, primary screening” value was “inactive”. Further, in test [3], the “p53 activation EC50, cherry pick confirmation” value is “inactive”; the “p53 activation EC50, primary screening” value was “inactive”; the “p53 activation efficacy, cherry pick confirmation” value was “inactive”; the “p53 activation efficacy, primary screening” value is “inactive”.

Take `CCCSc1ccc2nc(NC(=O)OC)[nH]c2c1` [Albendazole]: in the test with p53RE-bla HCT-116 cells, the “Viability EC50, cherry pick confirmation” value was “inactive”; the “Viability EC50, primary screening” value was “inactive”; the “Viability efficacy, cherry pick confirmation” value is “inactive”; the “Viability efficacy, primary screening” value was “inactive”. In test [1] (setting [4]), the EC50 stood at 0.113 µM. In addition, in test [1] (setting [5]), the EC50 is 0.517 µM. Further, in test [1] (setting [6]), the Emax worked out at 31.1%. In addition, the Emax in test [1] (setting [7]) was found to be 40.1%. In addition, in test [2], the “p53 activation EC50, cherry pick confirmation” value is “inactive”; the “p53 activation EC50, primary screening” value was “inactive”; the “p53 activation efficacy, cherry pick confirmation” value is “inactive”; the “p53 activation efficacy, primary screening” value is “inactive”. Further, in test [3], the “p53 activation EC50, cherry pick confirmation” value is “inactive”; the “p53 activation EC50, primary screening” value is “inactive”; the “p53 activation efficacy, cherry pick confirmation” value was “inactive”; the “p53 activation efficacy, primary screening” value was “inactive”.

In the case of `CNC(=O)O/N=C/C(C)(C)SC` [Aldicarb], in the test with p53RE-bla HCT-116 cells, the “Viability EC50” value is “inactive” and the Viability efficacy entry was “inactive”. Also, in test [1], the “p53 activation EC50” value was “inactive” and the p53 activation efficacy result was “inactive”. In addition, the “p53 activation EC50” value in test [2] is “inactive”. Also, in test [3], the “p53 activation EC50” value was “inactive”.

On to `O=c1cc(-c2ccc(O)cc2)oc2cc(O)cc(O)c12` [Apigenin], for which, in the test with p53RE-bla HCT-116 cells, the “Viability EC50, cherry pick confirmation” value was “inactive”; the “Viability EC50, primary screening” value is “inactive”; the “Viability efficacy, cherry pick confirmation” value was “inactive”; the “Viability efficacy, primary screening” value was “inactive”. Besides, the EC50 in test [1] (setting [4]) was 46.5 µM. For the same compound, the concentration for a half-maximal effect (EC50) in test [1] (setting [5]) came out at 18.2 µM. For the same compound, the Emax in test [1] (setting [6]) turned out to be 32.2%. Moreover, the Emax in test [1] (setting [7]) was 51.2%. In test [2], the “p53 activation EC50, cherry pick confirmation” value was “inactive”; the “p53 activation EC50, primary screening” value is “inactive”; the “p53 activation efficacy, cherry pick confirmation” value is “inactive”; the “p53 activation efficacy, primary screening” value was “inactive”. Besides, in test [3], the “p53 activation EC50, cherry pick confirmation” value is “inactive”; the “p53 activation EC50, primary screening” value is “inactive”; the “p53 activation efficacy, cherry pick confirmation” value was “inactive”; the “p53 activation efficacy, primary screening” value is “inactive”.

Regarding `CN(C)c1ccc(C(=N)c2ccc(N(C)C)cc2)cc1` [Auramine hydrochloride], in the test on p53RE-bla HCT-116 cells, the “Viability EC50, cherry pick confirmation” value is “inactive”; the “Viability EC50, primary screening” value is “inactive”; the “Viability efficacy, cherry pick confirmation” value was “inactive”; the “Viability efficacy, primary screening” value was “inactive”. For the same compound, in test [1], the “p53 activation EC50, cherry pick confirmation” value is “inactive” and the “p53 activation efficacy, cherry pick confirmation” value is “inactive”. Besides, the EC50 in test [1] (setting [5]) is 3.94 µM. In addition, the Emax in test [1] (setting [7]) came to 37.6%. In test [2], the “p53 activation EC50, cherry pick confirmation” value is “inactive”; the “p53 activation EC50, primary screening” value is “inactive”; the “p53 activation efficacy, cherry pick confirmation” value was “inactive”; the “p53 activation efficacy, primary screening” value is “inactive”. Besides, in test [3], the “p53 activation EC50, cherry pick confirmation” value was “inactive”; the “p53 activation EC50, primary screening” value is “inactive”; the “p53 activation efficacy, cherry pick confirmation” value is “inactive”; the “p53 activation efficacy, primary screening” value was “inactive”.

`CNC(=O)c1ccccc1Sc1ccc2c(/C=C/c3ccccn3)n[nH]c2c1` [Axitinib]: in the test with p53RE-bla HCT-116 cells, the “Viability EC50, cherry pick confirmation” value was “inactive”; the “Viability EC50, primary screening” value is “inactive”; the “Viability efficacy, cherry pick confirmation” value is “inactive”; the “Viability efficacy, primary screening” value was “inactive”. In addition, the EC50 in test [1] (setting [5]) was 1.41 µM. Further, the Emax in test [1] (setting [6]) was 56%. In test [1] (setting [7]), the Emax is 83.4%. Moreover, in test [2], the “p53 activation EC50, cherry pick confirmation” value was “inactive”; the “p53 activation EC50, primary screening” value was “inactive”; the “p53 activation efficacy, cherry pick confirmation” value is “inactive”; the “p53 activation efficacy, primary screening” value is “inactive”. In test [3], the “p53 activation EC50, cherry pick confirmation” value is “inactive”; the “p53 activation EC50, primary screening” value is “inactive”; the “p53 activation efficacy, cherry pick confirmation” value was “inactive”; the “p53 activation efficacy, primary screening” value is “inactive”.

For `Cn1cnc([N+](=O)[O-])c1Sc1ncnc2nc[nH]c12` [Azathioprine], in the test on p53RE-bla HCT-116 cells, the “EC50, viability, cherry pick confirmation” value was “inactive”; the “EC50, viability, primary screening” value is “inactive”; the “Efficacy, viability, cherry pick confirmation” value was “inactive”; the “Efficacy, viability, primary screening” value was “inactive”. In test [1], the “EC50, p53 activation, cherry pick confirmation” value was “inactive” and the “Efficacy, p53 activation, cherry pick confirmation” value is “inactive”. Further, the EC50 in test [1] (setting [8]) was 33.7 µM. Further, the Emax in test [1] (setting [9]) is 39.9%. For the same compound, in test [2], the “EC50, p53 activation, cherry pick confirmation” value is “inactive”; the “EC50, p53 activation, primary screening” value is “inactive”; the “Efficacy, p53 activation, cherry pick confirmation” value is “inactive”; the “Efficacy, p53 activation, primary screening” value was “inactive”. Moreover, in test [3], the “EC50, p53 activation, cherry pick confirmation” value is “inactive”; the “EC50, p53 activation, primary screening” value was “inactive”; the “Efficacy, p53 activation, cherry pick confirmation” value was “inactive”; the “Efficacy, p53 activation, primary screening” value is “inactive”.

As to `O=C(Nc1cccc(Cl)c1)OCC#CCCl` [Barban], in the test on p53RE-bla HCT-116 cells, the “Viability EC50, cherry pick confirmation” value was “inactive”; the “Viability EC50, primary screening” value is “inactive”; the “Viability efficacy, cherry pick confirmation” value is “inactive”; the “Viability efficacy, primary screening” value was “inactive”. Also, the EC50 in test [1] (setting [4]) was determined as 32.3 µM. For the same compound, the EC50 in test [1] (setting [5]) turned out to be 19 µM. For the same compound, in test [1] (setting [6]), the Emax worked out at 46.3%. Further, in test [1] (setting [7]), the Emax came to 37.2%. Also, in test [2], the “p53 activation EC50, cherry pick confirmation” value is “inactive”; the “p53 activation EC50, primary screening” value was “inactive”; the “p53 activation efficacy, cherry pick confirmation” value was “inactive”; the “p53 activation efficacy, primary screening” value is “inactive”. Also, in test [3], the “p53 activation EC50, cherry pick confirmation” value was “inactive”; the “p53 activation EC50, primary screening” value is “inactive”; the “p53 activation efficacy, cherry pick confirmation” value was “inactive”; the “p53 activation efficacy, primary screening” value is “inactive”.

Consider `CCOC(=O)CCN(SN(C)C(=O)Oc1cccc2c1OC(C)(C)C2)C(C)C` [Benfuracarb], for which, in the test with p53RE-bla HCT-116 cells, the “Viability EC50” value is “inactive”. In the test with p53RE-bla HCT-116 cells, the Viability efficacy entry is “inactive”. For the same compound, the “p53 activation EC50” value in test [1], in test [2] and in test [3] was “inactive” each time. In addition, the p53 activation efficacy entry in test [1] was “inactive”.

Broadly, the EC50 is the concentration needed to bring the measured effect to its halfway point.
